In patent US4868321A, “Isothiocyanate intermediates” (FMC Corporation, priority 1988, dated 1989):
Where a name gives a salt, the structure may show the parent alone.

Key:
Type in all cases: in vivo
Rice [1] = experiment: Preemergence Herbicidal Activity, Rice; details: Oryza sativa, pre-emergence; for plant injury at 250 g/ha: 0.25 kg/ha
Outline: (§1)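 Test compounds are dosed on a per-area basis (kg/ha); plant response is reported as % C.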

Field Bindweed [2] = experiment: Postemergence Herbicidal Activity, Field Bindweed; details: post-emergence; for pest or weed control at 250 g/ha: 0.25 kg/ha
Outline: (§2)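 Herbicide dissolved, usually in 50/50 acetone/water, then applied preemergence or postemergence at a set kg/ha rate. Control assessed as % C.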

Field Bindweed [3] = experiment: Preemergence Herbicidal Activity, Field Bindweed; details: pre-emergence; for pest or weed control at 250 g/ha: 0.25 kg/ha
Outline: as §2

Soybean [4] = experiment: Preemergence Herbicidal Activity, Soybean; details: Glycine max, pre-emergence; for plant injury at 250 g/ha: 0.25 kg/ha
Outline: as §1

Velvetleaf [5] = experiment: Preemergence Herbicidal Activity, Velvetleaf; details: Abutilon theophrasti, pre-emergence; for pest or weed control at 250 g/ha: 0.25 kg/ha
Outline: as §2

Morningglory [6] = experiment: Postemergence Herbicidal Activity, Morningglory; details: Ipomoea, post-emergence; for pest or weed control at 250 g/ha: 0.25 kg/ha
Outline: as §2

Rice [7] = experiment: Postemergence Herbicidal Activity, Rice; details: Oryza sativa, post-emergence; for plant injury at 250 g/ha: 0.25 kg/ha
Outline: as §1

Barnyardgrass [8] = experiment: Preemergence Herbicidal Activity, Barnyardgrass; details: Echinochloa crus-galli, pre-emergence; for pest or weed control at 250 g/ha: 0.25 kg/ha
Outline: (§3)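 Compounds were applied at rates given in kilograms per hectare, and herbicidal effect was scored as percent control.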

Barnyardgrass [9] = experiment: Postemergence Herbicidal Activity, Barnyardgrass; details: Echinochloa crus-galli, post-emergence; for pest or weed control at 250 g/ha: 0.25 kg/ha
Outline: as §3

Soybean [10] = experiment: Postemergence Herbicidal Activity, Soybean; details: Glycine max, post-emergence; for plant injury at 250 g/ha: 0.25 kg/ha
Outline: as §1

Wheat [11] = experiment: Preemergence Herbicidal Activity, Wheat; details: Triticum aestivum, pre-emergence; for plant injury at 250 g/ha: 0.25 kg/ha
Outline: as §1

Cotton [12] = experiment: Preemergence Herbicidal Activity, Cotton; details: Gossypium hirsutum, pre-emergence; for plant injury at 250 g/ha: 0.25 kg/ha
Outline: as §2

Green Foxtail [13] = experiment: Postemergence Herbicidal Activity, Green Foxtail; details: Setaria viridis, post-emergence; for pest or weed control at 250 g/ha: 0.25 kg/ha
Outline: as §3

Wheat [14] = experiment: Postemergence Herbicidal Activity, Wheat; details: Triticum aestivum, post-emergence; for plant injury at 250 g/ha: 0.25 kg/ha
Outline: as §1

Cotton [15] = experiment: Postemergence Herbicidal Activity, Cotton; details: Gossypium hirsutum, post-emergence; for plant injury at 250 g/ha: 0.25 kg/ha
Outline: as §2

Field Corn [16] = experiment: Preemergence Herbicidal Activity, Field Corn; details: Zea mays, pre-emergence; for plant injury at 250 g/ha: 0.25 kg/ha
Outline: as §1

Green Foxtail [17] = experiment: Preemergence Herbicidal Activity, Green Foxtail; details: Setaria viridis, pre-emergence; for pest or weed control at 250 g/ha: 0.25 kg/ha
Outline: as §3

Field Corn [18] = experiment: Postemergence Herbicidal Activity, Field Corn; details: Zea mays, post-emergence; for plant injury at 250 g/ha: 0.25 kg/ha
Outline: as §1

Velvetleaf [19] = experiment: Postemergence Herbicidal Activity, Velvetleaf; details: Abutilon theophrasti, post-emergence; for pest or weed control at 250 g/ha: 0.25 kg/ha
Outline: as §2

Johnsongrass [20] = experiment: Preemergence Herbicidal Activity, Johnsongrass; details: Sorghum halepense, pre-emergence; for pest or weed control at 250 g/ha: 0.25 kg/ha
Outline: as §3

Morningglory [21] = experiment: Preemergence Herbicidal Activity, Morningglory; details: Ipomoea, pre-emergence; for pest or weed control at 250 g/ha: 0.25 kg/ha
Outline: as §2

Johnsongrass [22] = experiment: Postemergence Herbicidal Activity, Johnsongrass; details: Sorghum halepense, post-emergence; for pest or weed control at 250 g/ha: 0.25 kg/ha
Outline: as §3

SMILES: O=c1n(CCCF)nnn1-c1cc(NS(=O)(=O)C(F)(F)F)c(Cl)cc1F [Compound 30, 1-[4-Chloro-2-fluoro-5-(N-trifluoromethylsulfonylamino)phenyl]-1,4-dihydro-4-(3-fluoropropyl)-5H-tetrazol-5-one]
- plant injury at 250 g/ha (Rice [1]): 20%
- pest or weed control at 250 g/ha (Field Bindweed [2]): 70%
- pest or weed control at 250 g/ha (Field Bindweed [3]): 95%
- plant injury at 250 g/ha (Soybean [4]): 10%
- pest or weed control at 250 g/ha (Velvetleaf [5]): 100%
- pest or weed control at 250 g/ha (Morningglory [6]): 80%
- plant injury at 250 g/ha (Rice [7]): 10%
- pest or weed control at 250 g/ha (Barnyardgrass [8]): 0%
- pest or weed control at 250 g/ha (Barnyardgrass [9]): 10%
- plant injury at 250 g/ha (Soybean [10]): 40%
- plant injury at 250 g/ha (Wheat [11]): 0%
- plant injury at 250 g/ha (Cotton [12]): 50%
- pest or weed control at 250 g/ha (Green Foxtail [13]): 0%
- plant injury at 250 g/ha (Wheat [14]): 10%
- plant injury at 250 g/ha (Cotton [15]): 90%
- plant injury at 250 g/ha (Field Corn [16]): 10%
- pest or weed control at 250 g/ha (Green Foxtail [17]): 10%
- plant injury at 250 g/ha (Field Corn [18]): 30%
- pest or weed control at 250 g/ha (Velvetleaf [19]): 100%
- pest or weed control at 250 g/ha (Johnsongrass [20]): 60%
- pest or weed control at 250 g/ha (Morningglory [21]): 60%
- pest or weed control at 250 g/ha (Johnsongrass [22]): 0%

SMILES: O=c1n(CCCF)nnn1-c1cc(NS(=O)(=O)C(F)(F)F)c(Cl)cc1F [Compound 32, 1-[4-Chloro-2-fluoro-5-(N--trifluoromethylsulfonylamino)phenyl]-1,4-dihydro-4-(3-fluoropropyl)-5H--tetrazol-5-one potassium salt]
- plant injury at 2000 g/ha (Rice [1]; 2.0 kg/ha): 95%
- pest or weed control at 2000 g/ha (Field Bindweed [2]; 2.0 kg/ha): 100%
- pest or weed control at 2000 g/ha (Field Bindweed [3]; 2.0 kg/ha): 100%
- plant injury at 2000 g/ha (Soybean [4]; 2.0 kg/ha): 40%
- pest or weed control at 2000 g/ha (Velvetleaf [5]; 2.0 kg/ha): 100%
- pest or weed control at 2000 g/ha (Morningglory [6]; 2.0 kg/ha): 100%
- plant injury at 2000 g/ha (Rice [7]; 2.0 kg/ha): 40%
- pest or weed control at 2000 g/ha (Barnyardgrass [8]; 2.0 kg/ha): 95%
- pest or weed control at 2000 g/ha (Barnyardgrass [9]; 2.0 kg/ha): 70%
- plant injury at 2000 g/ha (Soybean [10]; 2.0 kg/ha): 100%
- plant injury at 2000 g/ha (Wheat [11]; 2.0 kg/ha): 10%
- plant injury at 2000 g/ha (Cotton [12]; 2.0 kg/ha): 100%
- pest or weed control at 2000 g/ha (Green Foxtail [13]; 2.0 kg/ha): 40%
- plant injury at 2000 g/ha (Wheat [14]; 2.0 kg/ha): 40%
- plant injury at 2000 g/ha (Cotton [15]; 2.0 kg/ha): 100%
- plant injury at 2000 g/ha (Field Corn [16]; 2.0 kg/ha): 50%
- pest or weed control at 2000 g/ha (Green Foxtail [17]; 2.0 kg/ha): 60%
- plant injury at 2000 g/ha (Field Corn [18]; 2.0 kg/ha): 70%
- pest or weed control at 2000 g/ha (Velvetleaf [19]; 2.0 kg/ha): 100%
- pest or weed control at 2000 g/ha (Johnsongrass [20]; 2.0 kg/ha): 80%
- pest or weed control at 2000 g/ha (Morningglory [21]; 2.0 kg/ha): 100%
- pest or weed control at 2000 g/ha (Johnsongrass [22]; 2.0 kg/ha): 70%

SMILES: CS(=O)(=O)Nc1cc(-n2nnn(CCCF)c2=O)c(F)cc1Br [Compound 33, 1-[4-Bromo-2-fluoro-5-(N--methylsulfonylamino)phenyl]-1,4-dihydro-(3-fluoropropyl)-5H--tetrazol-5-one]
- plant injury at 250 g/ha (Rice [1]): 80%
- pest or weed control at 250 g/ha (Field Bindweed [2]): 100%
- pest or weed control at 250 g/ha (Field Bindweed [3]): 100%
- plant injury at 250 g/ha (Soybean [4]): 10%
- pest or weed control at 250 g/ha (Velvetleaf [5]): 100%
- pest or weed control at 250 g/ha (Morningglory [6]): 100%
- plant injury at 250 g/ha (Rice [7]): 80%
- pest or weed control at 250 g/ha (Barnyardgrass [8]): 95%
- pest or weed control at 250 g/ha (Barnyardgrass [9]): 80%
- plant injury at 250 g/ha (Soybean [10]): 70%
- plant injury at 250 g/ha (Wheat [11]): 20%
- plant injury at 250 g/ha (Cotton [12]): 100%
- pest or weed control at 250 g/ha (Green Foxtail [13]): 100%
- plant injury at 250 g/ha (Wheat [14]): 40%
- plant injury at 250 g/ha (Cotton [15]): 100%
- plant injury at 250 g/ha (Field Corn [16]): 40%
- pest or weed control at 250 g/ha (Green Foxtail [17]): 70%
- plant injury at 250 g/ha (Field Corn [18]): 30%
- pest or weed control at 250 g/ha (Velvetleaf [19]): 100%
- pest or weed control at 250 g/ha (Johnsongrass [20]): 70%
- pest or weed control at 250 g/ha (Morningglory [21]): 100%
- pest or weed control at 250 g/ha (Johnsongrass [22]): 70%
